Numbered stars: 1 amine (or outer) side, 2 acyl side, 3 side chain; on linkers, the order of the positions; unused ones are H or OH. Square brackets hold non-standard residues; d marks the D form. Peptide text beside a SMILES is read from it. X1 = CC(c1ccccc1)[C@H](N[*:1])C(=O)[*:2]; Thz(5,5-Me2) = CC1(C)SCN[C@@H]1C(=O)O; dThz(5,5-Me2) = CC1(C)SCN[C@H]1C(=O)O; Gly(cPent) = N[C@H](C(=O)O)C1CCCC1; hPhe = N[C@@H](CCc1ccccc1)C(=O)O; Chg = N[C@H](C(=O)O)C1CCCCC1; Pen = CC(C)(S)[C@H](N)C(=O)O; Nle = CCCC[C@H](N)C(=O)O; Abu = CC[C@H](N)C(=O)O; Sar = CNCC(=O)O
What was measured:
Rattus norvegicus [1] = assay: In vivo residual angiotensin II like activity in rat blood pressure assay; type: functional
Rattus norvegicus [2] = assay: (§1) In vivo angiotensin II like activity expressed in rat blood pressure assay measured as increase in BP by 1 ug bolus intravenous injection of compound; type: functional
Rattus norvegicus [3] = assay: In vivo antagonistic activity was measured in the rat blood pressure assay; type: functional
[4] = biological target: Type-1 angiotensin II receptor (Oryctolagus cuniculus) (UniProt P34976); assay: In vitro antagonist activity of compound towards angiotensin II like was measured in rabbit aorta assay; conditions: target entry is the homologue from another species
Sequence of Type-1 angiotensin II receptor (Oryctolagus cuniculus) (P34976 whole entry, looked up): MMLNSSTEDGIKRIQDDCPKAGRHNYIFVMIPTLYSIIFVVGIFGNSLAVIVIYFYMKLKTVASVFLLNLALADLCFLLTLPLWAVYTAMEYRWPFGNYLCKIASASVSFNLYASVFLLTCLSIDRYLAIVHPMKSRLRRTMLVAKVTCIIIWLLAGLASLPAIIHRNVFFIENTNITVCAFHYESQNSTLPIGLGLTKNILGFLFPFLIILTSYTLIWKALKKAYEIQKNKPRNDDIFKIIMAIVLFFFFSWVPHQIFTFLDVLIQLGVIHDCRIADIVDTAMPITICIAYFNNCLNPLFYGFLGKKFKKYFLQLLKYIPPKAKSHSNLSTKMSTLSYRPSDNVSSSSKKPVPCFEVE

Rattus norvegicus [5] = assay: In vivo residual angiotensin II like activity in an rat blood pressure assay; type: functional; parameters: concentration or dose not given beside the values
Oryctolagus cuniculus [6] = species: Oryctolagus cuniculus; assay: In vitro antagonist activity of compound towards angiotensin II like was measured in rabbit aorta assay; type: functional
[7] = biological target: T1, Type-2 angiotensin II receptor (Rattus norvegicus) (UniProt P35351); assay: as §1; type: functional, organism-based
T1 sequence (whole entry): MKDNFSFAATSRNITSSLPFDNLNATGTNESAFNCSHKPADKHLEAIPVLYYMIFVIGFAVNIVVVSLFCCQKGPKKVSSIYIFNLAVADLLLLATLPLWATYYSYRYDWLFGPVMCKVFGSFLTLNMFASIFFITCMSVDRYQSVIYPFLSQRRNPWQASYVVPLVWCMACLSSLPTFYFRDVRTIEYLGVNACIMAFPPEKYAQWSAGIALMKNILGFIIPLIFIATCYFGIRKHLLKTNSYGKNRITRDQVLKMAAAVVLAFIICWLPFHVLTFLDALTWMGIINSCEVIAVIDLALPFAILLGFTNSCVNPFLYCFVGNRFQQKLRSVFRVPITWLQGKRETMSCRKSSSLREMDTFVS

Rattus norvegicus [8] = assay: In vivo inhibitory activity against Residual angiotensin II in the rat blood pressure; type: functional
[9] = biological target: Type-1 angiotensin II receptor (Oryctolagus cuniculus) (UniProt P34976); assay: In vitro antagonist activity of compound towards angiotensin II like was measured in a rabbit aorta assay; conditions: target entry is the homologue from another species
Rattus norvegicus [10] = assay: In vivo angiotensin II like activity determined in rat blood pressure assay measured as increase in BP by 1 ug iv of compound; type: functional
Oryctolagus cuniculus [11] = species: Oryctolagus cuniculus; assay: In vitro antagonist activity was measured in rabbit aorta assay as pA2

Row | Molecule | ID50 (Rattus norvegicus [3]) [ng min-1 rat-1] | Activity (Rattus norvegicus [5]) [%] | BP (Rattus norvegicus [10]) [mmHg] | other results
1 | H-NRVYVHPF-OH [ANGIOTENSIN AMIDE] |  |  |  | Activity (Rattus norvegicus [1]): 100%
2 | CCCC[C@H](NC(=O)[C@H](Cc1ccc(O)cc1)NC(=O)[C@@H](NC(=O)[C@H](CCCN=C(N)N)NC(=O)CNC)C(C)C)C(=O)N[C@@H](Cc1c[nH]cn1)C(=O)N1CCC[C@H]1C(=O)N[C@H](C(=O)O)[C@@H](C)CC (H-[Sar]RVY[Nle]HPI-OH) | 20 |  |  | BP (Rattus norvegicus [2]): 20 mmHg; pA2 [4]: 8.85
3 | H-NRVYAHPF-OH |  | 3 |  | 
4 | CC[C@H](C)[C@H](NC(=O)[C@@H]1CCCN1C(=O)[C@H](Cc1c[nH]cn1)NC(=O)[C@@H](NC(=O)[C@H](Cc1ccc(O)cc1)NC(=O)[C@@H](NC(=O)[C@H](CCCN=C(N)N)NC(=O)CNC)C(C)C)[C@@H](C)CC)C(=O)O |  |  |  | pA2 (Oryctolagus cuniculus [6]): 9.1; BP [7]: 10.2 mmHg; ID50 (Rattus norvegicus [8]): 10 ng min-1 rat-1
5 | CC[C@H](C)[C@H](NC(=O)[C@@H]1CCCN1C(=O)[C@H](Cc1c[nH]cn1)NC(=O)[C@H]1N(C(=O)[C@H](Cc2ccc(O)cc2)NC(=O)[C@@H](NC(=O)[C@H](CCCN=C(N)N)NC(=O)CNC)C(C)C)CSC1(C)C)C(=O)O (H-[Sar]RVY[Thz(5,5-Me2)]HPI-OH) | 25 |  |  | BP (Rattus norvegicus [2]): 11.4 mmHg; pA2 [4]: 9
6 | CC[C@H](C)[C@H](NC(=O)[C@@H]1CCCN1C(=O)[C@H](Cc1c[nH]cn1)NC(=O)[C@H](C)NC(=O)[C@H](Cc1ccc(O)cc1)NC(=O)[C@@H](NC(=O)[C@H](CCCN=C(N)N)NC(=O)CNC)C(C)C)C(=O)O (H-[Sar]RVYAHPI-OH) | 50 |  |  | BP (Rattus norvegicus [2]): 5 mmHg; pA2 [9]: 7.5
7 | CC[C@H](C)[C@H](NC(=O)[C@@H]1CCCN1C(=O)[C@H](Cc1c[nH]cn1)NC(=O)[C@H](CCCCN)NC(=O)[C@H](Cc1ccc(O)cc1)NC(=O)[C@@H](NC(=O)[C@H](CCCN=C(N)N)NC(=O)CNC)C(C)C)C(=O)O (H-[Sar]RVYKHPI-OH) | 50 |  |  | BP (Rattus norvegicus [2]): 10 mmHg; pA2 [4]: 8.7
8 | H-NRVYYHPF-OH |  | 0 |  | 
9 | CC[C@H](C)[C@H](NC(=O)[C@@H]1CCCN1C(=O)[C@H](Cc1c[nH]cn1)NC(=O)[C@H](CCCN=C(N)N)NC(=O)[C@H](Cc1ccc(O)cc1)NC(=O)[C@@H](NC(=O)[C@H](CCCN=C(N)N)NC(=O)CNC)C(C)C)C(=O)O (H-[Sar]RVYRHPI-OH) | 15 |  | 10 | pA2 (Oryctolagus cuniculus [11]): 9
10 | CC[C@H](NC(=O)[C@H](Cc1ccc(O)cc1)NC(=O)[C@@H](NC(=O)[C@H](CCCN=C(N)N)NC(=O)[C@@H](N)CC(N)=O)C(C)C)C(=O)N[C@@H](Cc1c[nH]cn1)C(=O)N1CCC[C@H]1C(=O)N[C@@H](Cc1ccccc1)C(=O)O (H-NRVY[Abu]HPF-OH) |  | 16 |  | 
11 | CC[C@H](C)[C@H](NC(=O)[C@@H]1CCCN1C(=O)[C@H](Cc1c[nH]cn1)NC(=O)[C@H](Cc1c[nH]cn1)NC(=O)[C@H](Cc1ccc(O)cc1)NC(=O)[C@@H](NC(=O)[C@H](CCCN=C(N)N)NC(=O)CNC)C(C)C)C(=O)O | 5 |  | 10 | pA2 (Oryctolagus cuniculus [11]): 9
12 | CC[C@H](C)[C@H](NC(=O)[C@@H]1CCCN1C(=O)[C@H](Cc1c[nH]cn1)NC(=O)[C@@H]1CCCN1C(=O)[C@H](Cc1ccc(O)cc1)NC(=O)[C@@H](NC(=O)[C@H](CCCN=C(N)N)NC(=O)CNC)C(C)C)C(=O)O (H-[Sar]RVYPHPI-OH) |  |  |  | pA2 (Oryctolagus cuniculus [6]): 8.7; BP (Rattus norvegicus [2]): 7 mmHg
13 | CC[C@H](C)[C@H](NC(=O)[C@@H]1CCCN1C(=O)[C@H](Cc1c[nH]cn1)NC(=O)[C@H](Cc1c[nH]c2ccccc12)NC(=O)[C@H](Cc1ccc(O)cc1)NC(=O)[C@@H](NC(=O)[C@H](CCCN=C(N)N)NC(=O)CNC)C(C)C)C(=O)O | 50 |  | 7.5 | pA2 (Oryctolagus cuniculus [11]): 7.25
14 | CC[C@H](C)[C@H](NC(=O)[C@@H]1CCCN1C(=O)[C@H](Cc1c[nH]cn1)NC(=O)[C@H](CCc1ccccc1)NC(=O)[C@H](Cc1ccc(O)cc1)NC(=O)[C@@H](NC(=O)[C@H](CCCN=C(N)N)NC(=O)CNC)C(C)C)C(=O)O (H-[Sar]RVY[hPhe]HPI-OH) | 20 |  | 10 | pA2 (Oryctolagus cuniculus [11]): 7.75
15 | H-NRVYRHPF-OH |  | 0 |  | 
16 | CNCC(=O)N[C@@H](CCCN=C(N)N)C(=O)N[C@H](C(=O)N[C@@H](Cc1ccc(O)cc1)C(=O)N1CSC(C)(C)[C@@H]1C(=O)N[C@@H](Cc1c[nH]cn1)C(=O)N1CCC[C@H]1C(=O)N[C@@H](Cc1ccccc1)C(=O)O)C(C)C (H-[Sar]RVY[dThz(5,5-Me2)]HPF-OH) |  |  | 100 | 
17 | CCCC[C@H](NC(=O)[C@H](Cc1ccc(O)cc1)NC(=O)[C@@H](NC(=O)[C@H](CCCN=C(N)N)NC(=O)[C@@H](N)CC(N)=O)C(C)C)C(=O)N[C@@H](Cc1c[nH]cn1)C(=O)N1CCC[C@H]1C(=O)N[C@@H](Cc1ccccc1)C(=O)O (H-NRVY[Nle]HPF-OH) |  | 21 |  | 
18 | CNCC(=O)N[C@@H](CCCN=C(N)N)C(=O)N[C@H](C(=O)N[C@@H](Cc1ccc(O)cc1)C(=O)N[C@H](C(=O)N[C@@H](Cc1c[nH]cn1)C(=O)N1CCC[C@H]1C(=O)N[C@@H](Cc1ccccc1)C(=O)O)C(C)(C)SC)C(C)C (H-[Sar]RVY[Pen](Me)HPF-OH) |  |  | 60 | 
19 | CC[C@H](C)[C@H](NC(=O)[C@@H]1CCCN1C(=O)[C@H](Cc1c[nH]cn1)NC(=O)[C@H](Cc1ccc(O)cc1)NC(=O)[C@H](Cc1ccc(O)cc1)NC(=O)[C@@H](NC(=O)[C@H](CCCN=C(N)N)NC(=O)CNC)C(C)C)C(=O)O | 50 |  | 2.5 | pA2 (Oryctolagus cuniculus [11]): 9.6
20 | CO[C@H](C)[C@H](NC(=O)[C@H](Cc1ccc(O)cc1)NC(=O)[C@@H](NC(=O)[C@H](CCCN=C(N)N)NC(=O)[C@@H](N)CC(N)=O)C(C)C)C(=O)N[C@@H](Cc1c[nH]cn1)C(=O)N1CCC[C@H]1C(=O)N[C@@H](Cc1ccccc1)C(=O)O (H-NRVYT(Me)HPF-OH) |  | 118 |  | 
21 | CC[C@H](C)[C@H](NC(=O)[C@@H]1CCCN1C(=O)[C@H](Cc1c[nH]cn1)NC(=O)[C@H](CCC(=O)O)NC(=O)[C@H](Cc1ccc(O)cc1)NC(=O)[C@@H](NC(=O)[C@H](CCCN=C(N)N)NC(=O)CNC)C(C)C)C(=O)O | 100 |  |  | BP (Rattus norvegicus [2]): 2 mmHg; pA2 [4]: 9
22 | CC(C)[C@H](NC(=O)[C@H](CCCN=C(N)N)NC(=O)[C@@H](N)CC(N)=O)C(=O)N[C@@H](Cc1ccc(O)cc1)C(=O)N[C@H](C(=O)N[C@@H](Cc1c[nH]cn1)C(=O)N1CCC[C@H]1C(=O)N[C@@H](Cc1ccccc1)C(=O)O)C1CCCC1 (H-NRVY[Gly(cPent)]HPF-OH) |  | 89 |  | 
23 | CC[C@H](C)[C@H](NC(=O)[C@@H]1CCCN1C(=O)[C@H](Cc1c[nH]cn1)NC(=O)[C@@H](NC(=O)[C@H](Cc1ccc(O)cc1)NC(=O)[C@@H](NC(=O)[C@H](CCCN=C(N)N)NC(=O)CNC)C(C)C)C(C)(C)SC)C(=O)O (H-[Sar]RVY[Pen](Me)HPI-OH) | 20 |  |  | BP (Rattus norvegicus [2]): 12.5 mmHg; pA2 [4]: 9
24 | CC[C@H](C)[C@H](NC(=O)[C@@H]1CCCN1C(=O)[C@H](Cc1c[nH]cn1)NC(=O)[C@H](Cc1ccccc1)NC(=O)[C@H](Cc1ccc(O)cc1)NC(=O)[C@@H](NC(=O)[C@H](CCCN=C(N)N)NC(=O)CNC)C(C)C)C(=O)O (H-[Sar]RVYFHPI-OH) | 100 |  | 7.5 | pA2 (Oryctolagus cuniculus [11]): 9.15
25 | CC[C@H](C)[C@H](NC(=O)[C@@H]1CCCN1C(=O)[C@H](Cc1c[nH]cn1)NC(=O)[C@H](NC(=O)[C@H](Cc1ccc(O)cc1)NC(=O)[C@@H](NC(=O)[C@H](CCCN=C(N)N)NC(=O)CNC)C(C)C)c1ccccc1)C(=O)O | 5.5 |  | 8.5 | pA2 (Oryctolagus cuniculus [11]): 9
26 | CC[C@H](C)[C@H](NC(=O)[C@@H]1CCCN1C(=O)[C@H](Cc1c[nH]cn1)NC(=O)[C@@H](NC(=O)[C@H](Cc1ccc(O)cc1)NC(=O)[C@@H](NC(=O)[C@H](CCCN=C(N)N)NC(=O)CNC)C(C)C)C(C)c1ccccc1)C(=O)O (stereo not given in full) (H-[Sar]RVY[X1]HPI-OH) | 7.5 |  | 10 | pA2 (Oryctolagus cuniculus [11]): 9.3
27 | H-NRVYLHPF-OH |  | 25 |  | 
28 | H-NRVYPHPF-OH |  |  |  | Activity (Rattus norvegicus [1]): 10%
29 | CC(C)[C@H](NC(=O)[C@H](CCCN=C(N)N)NC(=O)[C@@H](N)CC(N)=O)C(=O)N[C@@H](Cc1ccc(O)cc1)C(=O)N[C@H](C(=O)N[C@@H](Cc1c[nH]cn1)C(=O)N1CCC[C@H]1C(=O)N[C@@H](Cc1ccccc1)C(=O)O)C1CCCCC1 (H-NRVY[Chg]HPF-OH) |  | 114 |  | 
